Results from patent US4904659A, “Substituted quinoline derivatives and pharmaceutical compositions thereof” (Development Finance Corporation of New Zeland, priority 1985, dated 1990).
Where two headings read alike, the source gives them in different places.

Columns and labels:
L1210 leukemia cells = assay: Growth inhibition of cultured L1210 leukemia cells (70 h, counted cell numbers); assay type: cell-based; settings: Mus musculus
bacterial cell lines = assay: In vitro antibacterial activity; assay type: cell-based; settings: a number of bacterial cell lines
Lewis lung carcinoma = assay: In vivo antitumour activity against Lewis lung carcinoma (cells inoculated intravenously); design: species or system mice (F1 hybrids of DBA/2J male x C57BL/6J female); settings: for LL in vivo ILS (percentage increase in lifespan) / LL in vivo Active: Lewis lung carcinoma; for LL in vivo ILS (percentage increase in lifespan): at optimal dose (OD), intraperitoneal, days 1, 5 and 9, control survival 17 days; for LL in vivo Active: at the stated dose, ILS greater than 40% significant; for LL in vivo number of long-term survivors: number in parentheses after ILS, out of a group of 6, Lewis lung carcinoma
Experimental: (§1) OD--The optimal drug dose (in milligrams per kilogram), administered intraperitoneally as a solution in 0.1 ml of 30% v/v ethyl alcohol in water on days 1, 5 and 9 after tumour inoculation. The drug is administered as a soluble acid addition salt.
(§2) ILSmax--The percentage increase in lifespan of treated animals over that of control animals injected with tumour alone. The average survival of control mice was 11 days (for P388 leukemia) and 17 days (for Lewis lung carcinoma) ILS values greater than 20% (P388 leukemia) and 40% (Lewis lung carcinoma) are considered statistically significant. Numbers in parentheses after ILS values indicate the number of long-term survivors (out of a group of 6).
(§3) Y--Implies a significant value of drug activity at the stated dose.
(§4) N--Implies no statistically significant activity.
LL--Is the Lewis lung carcinoma.
(§5) Both of these tumour lines were obtained as frozen cell stocks from Mason Research Inc., USA and are passaged intraperitoneally in DBA/25 mice of either sex (P388) or subcutaneously in C57BL/65 mice of either sex (LL) according to the standard methods (Cancer Chemother. Reports., 3, Part 3, p9, 1972).
(§6) Groups of six mice (F1 hybrids of DBA/2J male x C57BL/6J female) were injected intraperitoneally (P388) or intravenously (tail vein, LL), with 10^6 tumour cells on day 0. When given in this manner, P388 cells grow diffusely in the peritoneal cavity, whereas the Lewis lung cells from distinct solid tumour nodules in the lungs. Antitumour activity is determined by published methods (European J. Cancer, 19, pp.1607-1613, 1983).

P388 leukemia = assay: In vivo antitumour activity against P388 leukemia (cells inoculated intraperitoneally); design: species or system mice (F1 hybrids of DBA/2J male x C57BL/6J female); settings: for P388 in vivo ILS (percentage increase in lifespan) / P388 in vivo Active: P388 leukemia; for P388 in vivo ILS (percentage increase in lifespan): at optimal dose (OD), intraperitoneal, days 1, 5 and 9, control survival 11 days; for P388 in vivo Active: at the stated dose, ILS greater than 20% significant; for P388 in vivo number of long-term survivors: number in parentheses after ILS, out of a group of 6, P388 leukemia
Experimental: as §1, §2, §3, §4, §5, §6

[1] = Rm: lipophilic-hydrophilic balance from reversed phase partition chromatography; assay type: physicochemical; settings: linearly related to 1-octanol/water partition coefficients
Source text: Rm-a measure of the compound's liphophilic-hydrophilic balance from reversed phase partition chromatography. Rm is linearly related to partition coefficients obtained in the 1-octanol/water system.

[2] = L1210 leukemia cells, 70 h, cell numbers reduced to 50% of controls, read-out: In vitro L1210 (IC50)

SMILES | IC50 (L1210 leukemia cells; L1210, 70 h, read-out: In vitro L1210 (IC50)) [nM] | antibacterial activity (bacterial cell lines) | LL in vivo ILS (percentage increase in lifespan) (Lewis lung carcinoma) [%] | LL in vivo Active (Lewis lung carcinoma) | LL in vivo number of long-term survivors (Lewis lung carcinoma) | P388 in vivo ILS (percentage increase in lifespan) (P388 leukemia) [%] | P388 in vivo Active (P388 leukemia) | chromatographic logP [1] | IC50 (L1210 leukemia cells; [2]) [nM] | P388 in vivo number of long-term survivors (P388 leukemia) | IC50 (L1210 leukemia cells; L1210 leukemia cells, 70 h, cell numbers reduced to 50% of controls, read-out: In vitro L1210 (IC50), cell printed with unit nm) [nM]
CN(C)CCNC(=O)c1cccc2ccc(-c3ccccc3)nc12 [Compound 1] | 1300 | show in vitro activity against a number of bacterial cell lines | 70 | Y (Implies a significant value of drug activity at the stated dose) | 4 | 91 | Y (Implies a significant value of drug activity at the stated dose) | -0.01 |  |  | 
CN(C)CCCNC(=O)c1cccc2ccc(-c3ccccc3)nc12 [Compound 2] |  |  | < 40 | N (Implies no statistically significant activity) |  | 71 | Y (Implies a significant value of drug activity at the stated dose) | 0.06 | 1140 |  | 
CN(C)CCCCNC(=O)c1cccc2ccc(-c3ccccc3)nc12 [Compound 3] |  |  | 148 | Y (Implies a significant value of drug activity at the stated dose) | 2 | 93 | Y (Implies a significant value of drug activity at the stated dose) | 0.14 | 680 |  | 
CN(C)CCCCCNC(=O)c1cccc2ccc(-c3ccccc3)nc12 [Compound 4] |  |  | < 40 | N (Implies no statistically significant activity) |  | < 20 | N (Implies no statistically significant activity) | 0.21 | 1300 |  | 
O=C(NCCNCCO)c1cccc2ccc(-c3ccccc3)nc12 [Compound 5] |  |  |  |  |  | < 20 | N (Implies no statistically significant activity) |  |  |  | 
CN(C)CCNC(=O)c1cccc2ccc(-c3ccccn3)nc12 [Compound 7] |  |  | 91 | Y (Implies a significant value of drug activity at the stated dose) |  | 73 | Y (Implies a significant value of drug activity at the stated dose) | -1.43 | 1640 | 3 | 
CN(C)CCNC(=O)c1cccc2ccc(-c3ccccc3Cl)nc12 [Compound 8] |  |  |  |  |  | < 20 | N (Implies no statistically significant activity) | 0.15 | 8100 |  | 
CN(C)CCNC(=O)c1cccc2ccc(-c3cccnc3)nc12 [Compound 9] |  |  | 52 | Y (Implies a significant value of drug activity at the stated dose) | 2 | 58 | Y (Implies a significant value of drug activity at the stated dose) | -0.58 | 840 |  | 
CN(C)CCNC(=O)c1cccc2ccc(-c3cccc(Cl)c3)nc12 [Compound 10] |  |  | < 40 | N (Implies no statistically significant activity) |  | 40 | Y (Implies a significant value of drug activity at the stated dose) | 0.05 | 1200 |  | 
COc1cccc(-c2ccc3cccc(C(=O)NCCN(C)C)c3n2)c1 [Compound 11] |  |  |  |  |  | 46 | Y (Implies a significant value of drug activity at the stated dose) |  | 860 |  | 
CN(C)CCNC(=O)c1cccc2ccc(-c3ccncc3)nc12 [Compound 12] |  | show in vitro activity against a number of bacterial cell lines | 132 | Y (Implies a significant value of drug activity at the stated dose) | 3 | 145 | Y (Implies a significant value of drug activity at the stated dose) | -0.87 | 170 | 2 | 
CN(C)CCNC(=O)c1cccc2ccc(-c3ccc(F)cc3)nc12 [Compound 13] |  |  |  |  |  | < 20 | N (Implies no statistically significant activity) |  |  |  | 
CN(C)CCNC(=O)c1cccc2ccc(-c3ccc(Cl)cc3)nc12 [Compound 14] |  |  | 91 | Y (Implies a significant value of drug activity at the stated dose) | 4 | 52 | Y (Implies a significant value of drug activity at the stated dose) | 0.05 | 1170 |  | 
CN(C)CCNC(=O)c1cccc2ccc(-c3ccc(Br)cc3)nc12 [Compound 15] |  |  |  |  |  | 72 | Y (Implies a significant value of drug activity at the stated dose) |  | 600 |  | 
CN(C)CCNC(=O)c1cccc2ccc(-c3ccc(I)cc3)nc12 [Compound 16] |  |  |  |  |  | 48 | Y (Implies a significant value of drug activity at the stated dose) |  |  |  | 
CN(C)CCNC(=O)c1cccc2ccc(-c3ccc(-c4ccccc4)cc3)nc12 [Compound 17] |  |  |  |  |  | < 20 | N (Implies no statistically significant activity) |  | 1290 |  | 
COc1ccc(-c2ccc3cccc(C(=O)NCCN(C)C)c3n2)cc1 [Compound 18] |  |  |  |  |  | 42 | Y (Implies a significant value of drug activity at the stated dose) | -0.16 |  |  | 1290
CN(C)CCNC(=O)c1cccc2ccc(-c3ccc(O)cc3)nc12 [Compound 19] |  |  |  |  |  | 22 | Y (Implies a significant value of drug activity at the stated dose) | -0.33 | 27 |  | 
CN(C)CCNC(=O)c1cccc2ccc(-c3ccc([N+](=O)[O-])cc3)nc12 [Compound 20] |  |  | 85 | Y (Implies a significant value of drug activity at the stated dose) |  | 71 | Y (Implies a significant value of drug activity at the stated dose) | -0.18 | 290 |  | 
CN(C)CCNC(=O)c1cccc2ccc(-c3ccc(N)cc3)nc12 [Compound 21] |  |  | 65 | Y (Implies a significant value of drug activity at the stated dose) |  | 28 | Y (Implies a significant value of drug activity at the stated dose) | -0.76 | 200 |  | 
CC(=O)Nc1ccc(-c2ccc3cccc(C(=O)NCCN(C)C)c3n2)cc1 [Compound 22] |  |  |  |  |  | < 20 | N (Implies no statistically significant activity) |  | 740 |  | 
CN(C)CCNC(=O)c1cccc2ccc(-c3ccc(NS(C)(=O)=O)cc3)nc12 [Compound 23] |  |  |  |  |  | < 20 | N (Implies no statistically significant activity) | -0.38 | 1330 |  | 
CN(C)CCNC(=O)c1ccc(Cl)c2ccc(-c3ccccc3)nc12 [Compound 25] |  |  |  |  |  | 63 | Y (Implies a significant value of drug activity at the stated dose) |  |  |  | 
CN(C)CCNC(=O)c1cc([N+](=O)[O-])cc2ccc(-c3ccccc3)nc12 [Compound 26] |  |  |  |  |  | 63 | Y (Implies a significant value of drug activity at the stated dose) |  |  |  | 
